Activity calls are given as the source filed them.
Assays:
cells = format: functional
[1] = HEK-293T cell viability reduction – luminescence, B-cell screen hits, cytotoxicity control for BCR NF-kB inhibitor project, dose response (AID 489021); format: functional, cell-based;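 note: HEK-293T cells carrying an NF-kB luciferase reporter; cells exposed to compound for about 14 hours before viability readout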
[2] = Luminescence Cell-Based Dose Confirmation HTS to Identify Activators of 5'UTR Stem-Loop Driven Alpha-Synuclein mRNA Translation in H4 Neuroglioblastoma Cells. [Related pubchem assays: 1829 (Project Summary), 1814 (Primary HTS)]; format: functional
[3] = Luminescence Cell-Based Dose Response HTS to Identify Activators of Luciferase Translation or Activity in H4 […] Cells. [Related pubchem assays: 1829 (Project Summary), 1814 (Primary HTS)]; format: functional
BJ [4] = test: BJ-TERT fibroblast viability loss – cell-based, RAS-independent, luminescence, dose response (AID 1933); format: functional; details: Homo sapiens
H4 = test: Luminescence Cell-Based Dose Response HTS to Identify Activators of 5'UTR Stem-Loop Driven Prion Protein mRNA Translation in H4 Neuroglioblastoma Cells. [Related pubchem assays: 1829 (Project Summary), 1814 (Primary HTS)]; format: functional; details: Homo sapiens
BJ [5] = test: cells; format: functional, cell-based; details: Homo sapiens
BJ [6] = test: BJ-TERT-LT-ST fibroblast viability loss – cell-based, RAS-independent, luminescence, dose response (AID 1935); format: functional; details: Homo sapiens;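 note: BJ fibroblasts immortalized with TERT plus LT and ST oncogenes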
[7] = DRD fibroblast viability loss – cell-based, non-viral oncogenic, luminescence, dose response (AID 1934); format: functional; details: Homo sapiens
[8] = Trypanosoma cruzi growth suppression in host cells – NIH3T3 host cells, beta-gal luminescence, confirmation (AID 2044); format: functional, cell-based;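 note: intracellular parasites grown in NIH/3T3 mouse fibroblasts as host cells; luminescent beta-galactosidase reporter signal from transgenic T. cruzi replicating inside host cells; inhibitors lower the luminescence signal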
[9] = NIH3T3 cell viability loss – ATP luminescence, mouse fibroblasts, counter-screen, dose response (AID 2010); format: functional, cell-based;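 note: cells exposed to compound for about 90 hours before reading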
[10] = target: T1, Replicative DNA helicase DnaB (Mycobacterium tuberculosis, UniProt P9WMR3); test: DnaB intein splicing inhibitors, dose response, biochemical, cell-free fluorescence (AID 449749); format: functional
T1 sequence (P9WMR3 whole entry): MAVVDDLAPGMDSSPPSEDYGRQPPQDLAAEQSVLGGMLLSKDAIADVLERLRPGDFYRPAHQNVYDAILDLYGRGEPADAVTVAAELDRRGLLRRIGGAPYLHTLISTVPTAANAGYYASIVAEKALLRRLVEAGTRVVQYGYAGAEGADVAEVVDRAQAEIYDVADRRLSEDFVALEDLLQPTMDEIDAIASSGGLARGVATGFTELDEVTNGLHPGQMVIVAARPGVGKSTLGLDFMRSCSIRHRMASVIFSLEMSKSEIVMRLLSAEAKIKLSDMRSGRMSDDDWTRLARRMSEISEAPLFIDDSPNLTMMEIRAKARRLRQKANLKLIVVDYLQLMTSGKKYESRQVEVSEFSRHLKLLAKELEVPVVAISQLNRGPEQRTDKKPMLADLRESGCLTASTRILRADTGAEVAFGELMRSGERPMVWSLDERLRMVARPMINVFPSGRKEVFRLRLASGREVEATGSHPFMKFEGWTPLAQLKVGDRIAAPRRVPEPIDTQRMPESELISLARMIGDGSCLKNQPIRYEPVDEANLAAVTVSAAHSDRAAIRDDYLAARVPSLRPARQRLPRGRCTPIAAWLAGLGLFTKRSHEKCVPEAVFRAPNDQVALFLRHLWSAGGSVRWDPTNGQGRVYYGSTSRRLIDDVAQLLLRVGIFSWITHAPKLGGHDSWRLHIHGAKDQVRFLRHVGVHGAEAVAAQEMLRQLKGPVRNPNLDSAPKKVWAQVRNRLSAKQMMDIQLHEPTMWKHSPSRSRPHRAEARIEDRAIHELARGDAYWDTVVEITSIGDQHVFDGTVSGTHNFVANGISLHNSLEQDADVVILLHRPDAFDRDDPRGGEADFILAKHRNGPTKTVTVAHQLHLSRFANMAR

Protein RecA = target: T2, Protein RecA (Mycobacterium tuberculosis, UniProt P9WHJ3); test: Fluorescence Cell-Free Homogeneous Dose Retest to Identify Inhibitors of RecA-Intein Splicing Activity. [Related pubchem assays (depositor defined):AID2097, AID2223, AID489010, AID492950]; format: functional
T2 sequence (P9WHJ3 whole entry): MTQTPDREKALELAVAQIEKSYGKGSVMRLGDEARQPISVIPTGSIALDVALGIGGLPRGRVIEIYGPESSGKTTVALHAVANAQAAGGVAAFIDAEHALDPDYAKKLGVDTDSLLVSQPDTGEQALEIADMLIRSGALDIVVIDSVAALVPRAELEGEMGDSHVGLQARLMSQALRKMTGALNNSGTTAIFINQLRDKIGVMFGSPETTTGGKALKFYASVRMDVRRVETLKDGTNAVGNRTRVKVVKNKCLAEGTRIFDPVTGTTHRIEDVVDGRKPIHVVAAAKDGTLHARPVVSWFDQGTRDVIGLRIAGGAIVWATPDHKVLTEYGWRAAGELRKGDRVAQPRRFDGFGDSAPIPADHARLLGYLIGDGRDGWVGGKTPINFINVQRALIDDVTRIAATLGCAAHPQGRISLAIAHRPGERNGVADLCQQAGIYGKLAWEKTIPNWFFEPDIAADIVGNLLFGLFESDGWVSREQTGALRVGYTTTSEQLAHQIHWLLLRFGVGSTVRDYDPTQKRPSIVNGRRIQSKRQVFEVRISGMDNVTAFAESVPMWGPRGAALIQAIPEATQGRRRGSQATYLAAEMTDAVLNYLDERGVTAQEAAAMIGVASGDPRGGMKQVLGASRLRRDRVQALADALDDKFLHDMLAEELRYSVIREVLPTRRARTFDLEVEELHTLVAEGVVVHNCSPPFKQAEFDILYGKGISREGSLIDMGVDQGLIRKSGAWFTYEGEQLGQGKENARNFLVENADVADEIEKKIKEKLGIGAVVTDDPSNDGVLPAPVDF

[11] = reduced cellular PGC1a acetyl-lysine signal – cell-based, cherry-picked samples, dose response (AID 720514); format: functional;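 note: potency may reflect raised or lowered acetylation signal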
[12] = A549 cell cytotoxicity, dose response, cytotoxicity control, plate reader, cherry-pick, antagonist series (AID 743412); format: functional, cell-based
[13] = toxicity toward HepG2 liver cells – cell-based, plate reader, cherry-pick, antagonist series, cytotoxicity control, dose response (AID 743416); format: functional
[14] = blockers of bursicon-stimulated LGR2 cAMP reporter – cell-based, HEK293, CRE-luciferase reporter, cherry pick, set 2, dose response (AID 743343); format: functional;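 note: transfected cells were stimulated with diluted bursicon conditioned medium after compound addition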
[15] = blockade of melanocortin 4 receptor signaling – cell-based, plate reader, cherry pick, counter-screen for LGR2 antagonist project, dose response (AID 743444); format: functional;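 note: transfected HEK 293 cells stimulated with alpha-MSH peptide; potency of inhibitors of the alpha-MSH evoked signal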
[16] = viability loss in HEK293 cells – cell-based, plate reader, cherry-picked samples, cytotoxicity control, dose response (AID 743446); format: functional
Leucine aminopeptidase = target: T3, Leucine aminopeptidase (Plasmodium falciparum 3D7, UniProt Q8IL11); test: P. falciparum M17LAP inhibitors, primary screen, biochemical, fluorogenic H-Leu-NHMec substrate, 1536-well (AID 1619); format: functional
T3 sequence (Q8IL11 whole entry): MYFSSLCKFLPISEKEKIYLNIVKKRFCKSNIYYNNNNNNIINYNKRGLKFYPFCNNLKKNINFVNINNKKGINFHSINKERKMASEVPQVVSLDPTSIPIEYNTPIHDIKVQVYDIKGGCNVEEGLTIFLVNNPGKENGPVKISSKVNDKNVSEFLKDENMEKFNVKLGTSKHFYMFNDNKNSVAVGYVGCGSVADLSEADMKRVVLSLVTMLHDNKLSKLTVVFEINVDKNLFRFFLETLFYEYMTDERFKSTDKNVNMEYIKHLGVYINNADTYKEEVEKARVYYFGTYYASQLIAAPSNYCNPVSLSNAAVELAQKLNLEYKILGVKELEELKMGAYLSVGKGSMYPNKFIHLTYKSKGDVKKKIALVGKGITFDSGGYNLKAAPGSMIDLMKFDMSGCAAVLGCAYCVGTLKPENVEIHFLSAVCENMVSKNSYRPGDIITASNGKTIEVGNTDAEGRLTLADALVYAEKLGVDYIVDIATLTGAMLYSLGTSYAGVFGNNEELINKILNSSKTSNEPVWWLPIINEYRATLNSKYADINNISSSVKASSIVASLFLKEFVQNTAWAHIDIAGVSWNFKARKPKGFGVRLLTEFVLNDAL

Aminopeptidase N = target: T4, Aminopeptidase N (Plasmodium falciparum FcB1/Columbia, UniProt O96935); test: malaria alanyl aminopeptidase activity blockers – biochemical, fluorogenic H-Leu-NHMec substrate, 1536-well (AID 1445); set-up: species or system Plasmodium falciparum 3D7, 3D7
T4 sequence (O96935 whole entry): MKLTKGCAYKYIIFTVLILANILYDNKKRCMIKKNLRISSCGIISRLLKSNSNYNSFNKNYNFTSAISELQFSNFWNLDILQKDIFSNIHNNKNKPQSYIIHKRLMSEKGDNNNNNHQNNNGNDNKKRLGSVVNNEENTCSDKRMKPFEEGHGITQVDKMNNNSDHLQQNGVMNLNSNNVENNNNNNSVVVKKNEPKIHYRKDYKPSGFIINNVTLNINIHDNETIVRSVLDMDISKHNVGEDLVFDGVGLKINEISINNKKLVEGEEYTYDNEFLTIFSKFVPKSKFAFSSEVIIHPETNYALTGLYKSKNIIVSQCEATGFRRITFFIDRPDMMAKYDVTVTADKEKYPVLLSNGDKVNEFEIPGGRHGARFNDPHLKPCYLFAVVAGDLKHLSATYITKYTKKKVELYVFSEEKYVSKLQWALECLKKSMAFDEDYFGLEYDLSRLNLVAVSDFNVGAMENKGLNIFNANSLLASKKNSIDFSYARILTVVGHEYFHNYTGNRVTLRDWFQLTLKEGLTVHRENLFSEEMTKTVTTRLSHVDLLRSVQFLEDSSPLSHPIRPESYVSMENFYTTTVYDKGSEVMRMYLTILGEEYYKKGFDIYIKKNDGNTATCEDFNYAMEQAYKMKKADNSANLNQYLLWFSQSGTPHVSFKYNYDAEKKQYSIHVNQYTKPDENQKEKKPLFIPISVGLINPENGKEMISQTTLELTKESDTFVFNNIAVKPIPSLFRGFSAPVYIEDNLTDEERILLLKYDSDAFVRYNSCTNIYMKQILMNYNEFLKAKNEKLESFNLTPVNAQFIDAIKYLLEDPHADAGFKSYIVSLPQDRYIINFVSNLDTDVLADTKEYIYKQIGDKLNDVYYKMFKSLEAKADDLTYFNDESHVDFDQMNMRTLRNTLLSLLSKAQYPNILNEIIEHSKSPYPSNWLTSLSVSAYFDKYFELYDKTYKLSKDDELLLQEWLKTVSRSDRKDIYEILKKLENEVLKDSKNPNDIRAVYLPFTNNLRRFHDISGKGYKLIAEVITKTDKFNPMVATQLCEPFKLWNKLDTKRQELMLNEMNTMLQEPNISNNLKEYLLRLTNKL

[17] = target: Glyceraldehyde-3-phosphate dehydrogenase (Homo sapiens, UniProt P04406)
[18] = target: Induced myeloid leukemia cell differentiation protein Mcl-1 (Homo sapiens, UniProt Q07820); format: functional
[19] = target: T5, Carboxy-terminal domain RNA polymerase II polypeptide A small phosphatase 1 (Homo sapiens, UniProt Q9GZU7); test: CTDSP1 inhibitors, concentration-response, biochemical, absorbance readout, ultra-high-throughput screen actives (AID 540297); format: functional
T5 sequence (Q9GZU7 whole entry): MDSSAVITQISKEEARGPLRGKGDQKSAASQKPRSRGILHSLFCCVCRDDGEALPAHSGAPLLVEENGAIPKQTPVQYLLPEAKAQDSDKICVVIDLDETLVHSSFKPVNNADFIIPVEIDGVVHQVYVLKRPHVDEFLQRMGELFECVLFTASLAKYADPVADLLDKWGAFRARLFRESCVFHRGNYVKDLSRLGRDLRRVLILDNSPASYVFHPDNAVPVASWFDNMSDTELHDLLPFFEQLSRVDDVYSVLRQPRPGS

Glyceraldehyde-3-phosphate dehydrogenase, sequence (P04406 whole entry): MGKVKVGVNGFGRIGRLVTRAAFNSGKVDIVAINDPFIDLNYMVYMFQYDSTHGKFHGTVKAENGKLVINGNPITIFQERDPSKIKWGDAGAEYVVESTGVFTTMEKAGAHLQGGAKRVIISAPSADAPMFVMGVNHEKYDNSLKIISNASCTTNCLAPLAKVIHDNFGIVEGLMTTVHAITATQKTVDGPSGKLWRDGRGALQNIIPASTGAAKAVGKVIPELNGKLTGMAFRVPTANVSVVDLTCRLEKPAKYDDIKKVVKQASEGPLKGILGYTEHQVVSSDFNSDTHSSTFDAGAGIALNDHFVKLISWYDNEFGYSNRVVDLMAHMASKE
Induced myeloid leukemia cell differentiation protein Mcl-1, sequence (Q07820 whole entry, the tested form may be a part): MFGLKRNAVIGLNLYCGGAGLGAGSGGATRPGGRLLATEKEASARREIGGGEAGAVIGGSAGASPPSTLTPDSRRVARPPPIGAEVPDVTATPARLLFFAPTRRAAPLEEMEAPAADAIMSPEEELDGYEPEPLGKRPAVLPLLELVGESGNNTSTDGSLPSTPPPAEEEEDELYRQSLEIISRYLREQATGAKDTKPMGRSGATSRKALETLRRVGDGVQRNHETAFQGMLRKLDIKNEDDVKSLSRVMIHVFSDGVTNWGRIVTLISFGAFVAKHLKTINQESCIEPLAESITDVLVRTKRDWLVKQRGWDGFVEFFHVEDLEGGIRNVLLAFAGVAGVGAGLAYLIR

With `Cc1cc(NC(=O)COc2ccccc2)ccc1Cl` the IC50 (cells) was > 50 µM (active).
With `CCN(CC)S(=O)(=O)c1ccc(N2CCOCC2)c(NC(=O)c2[nH]c(C)c(C(C)=O)c2C)c1` the IC50 [1] was > 80 µM (inactive).
For `Cn1cc(C(=O)N/N=C/c2ccc3c(c2)OCO3)c2ccccc21`, the EC50 [2] was > 120 µM (not active), the EC50 [3] was 5.78 µM (active) and the EC50 (BJ [4]) was 124 µM (active). The EC50 (H4) was 5.85 µM (active), the EC50 (BJ [5]) was 44.9 µM (active) and the EC50 (BJ [6]) was > 150 µM (inconclusive). For the same compound, the EC50 [7] was 19.6 µM (active).
With `O=c1c(Cl)c(Cl)cnn1Cc1nnc(-c2ccc(Cl)cc2)o1` the EC50 [2] was > 120 µM (not active), the EC50 [3] was > 120 µM (not active) and the EC50 (H4) was > 120 µM (not active). The EC50 [8] was 1.15 µM (active), the EC50 [9] was 2.02 µM (active) and the AC50 [10] was 9.97 µM (active). For the same compound, the EC50 (Protein RecA) was 2.95 µM (active), the AC50 [11] was 7.83 µM (active) and the AC50 [12] was 7.33 µM (active). The AC50 [13] was 8.01 µM (active), the AC50 [14] was 25.3 µM (active) and the AC50 [15] was 30.9 µM (active). For the same compound, the AC50 [16] was 8.16 µM (active).
For `CCOc1ccccc1Nc1nnc(SCC(=O)NC(Cc2c[nH]c3ccccc23)C(=O)O)s1` (configuration not stated), the IC50 (Leucine aminopeptidase) was 7.81 µM (active) and the IC50 (Aminopeptidase N) was 67.4 µM (active).
In the case of `O=C(COC(=O)c1cc(Br)ccc1O)Nc1ccc2c(c1)OCO2`, the IC50 (cells) is reported as 22.1 µM (active).
In the case of `CCOC(=O)c1c(C)[nH]c(C)c1C(=O)COC(=O)c1ccc([N+](=O)[O-])s1`, the IC50 (cells) is reported as 8.59 µM (active).
For `O=C(CCC1CCCCC1)Nc1nc[nH]n1`, the IC50 [17] was > 10 µM (inconclusive).
With `CS(=O)(=O)C1=NSC2=NC(=O)/C(=C\c3cccn3-c3ccc(Cl)cc3)C(=N)N21` the IC50 (Aminopeptidase N) was 5.15 µM (active), the IC50 [18] was 4.98 µM (active) and the IC50 [19] was 5.93 µM (active).
With `COc1cc(OC)cc(C(=O)NNC(=O)C2CCCC2)c1` the EC50 (BJ [4]) was > 150 µM (not active), the EC50 (BJ [5]) was > 150 µM (not active) and the EC50 (BJ [6]) was > 150 µM (not active). The EC50 [7] was > 150 µM (not active).
For `CCOc1ccc(-c2nnc(SCC(=O)Nc3cc(C)on3)o2)cc1`, the IC50 [1] was > 80 µM (inactive).
For `O=C1C(Cl)=C(N2CCN(CCO)CC2)C(=O)N1c1ccnc(Cl)c1`, the IC50 [17] was > 50 µM (inconclusive).
With `Cc1c(CCC(=O)N2CCC(C(=O)O)CC2)c(=O)oc2cc3oc4c(c3cc12)CCCC4` the IC50 [1] was > 80 µM (inactive).
